The record followed here is PubChem BioAssay (NCI).

Some test systems named below: OVCAR-3 ovarian; RXF 393 renal; SK-MEL-5 melanoma; SNB-19 CNS; SNB-75 CNS; UACC-257 melanoma; M14 melanoma; RPMI-8226 leukemia; SR leukemia; T-47D breast.
Common to all, as to experiment: NCI anticancer screen, dose series, 48 h

The structures appear in SMILES notation.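 Interpolation was linear, between the two tested concentrations surrounding the appropriate level; five concentrations were tested over 48 hours in 96-well plates. GI50 is the concentration that inhibits growth by half. TGI marks complete inhibition of growth.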

In the case of `CN(C)c1nc(N(C)C)nc(N(C)CN(C)c2ccc(Cl)cc2)n1`, the TGI in the experiment with OVCAR-3 ovarian, in the experiment on RXF 393 renal, in the experiment on SK-MEL-5 melanoma, in the experiment on SNB-19 CNS, in the experiment with SNB-75 CNS and in the experiment on UACC-257 melanoma was more than 100 µM each time.
In the case of `CN(c1cc2ncc(=O)[nH]c2cc1NC(N)=NCc1ccc(Cl)cc1)C1CCCCC1`, the GI50 in the experiment with M14 melanoma is 7.36 µM; with OVCAR-3 ovarian, 6.78 µM; in the experiment with RPMI-8226 leukemia, 3.54 µM; with RXF 393 renal, 5.79 µM; in the experiment on SK-MEL-5 melanoma, 8.18 µM; with SNB-75 CNS, 2.87 µM. In addition, the GI50 in the experiment with SR leukemia was 1.49 µM; in the experiment on T-47D breast, 5.82 µM; in the experiment with UACC-257 melanoma it was 9.77 µM. The TGI in the experiment on M14 melanoma was 14.9 µM; with OVCAR-3 ovarian, 13.6 µM; in the experiment with RPMI-8226 leukemia, 13.4 µM; with RXF 393 renal, 13 µM; in the experiment with SK-MEL-5 melanoma it was 15.3 µM; with SNB-75 CNS, 10.1 µM. Besides, the TGI in the experiment on SR leukemia stood at 5.23 µM; in the experiment on T-47D breast, 17 µM; with UACC-257 melanoma, 19.2 µM.
As for `COc1ccc2c(c1)CCN=C2Cc1cc(OC)c(OC)cc1CCCl`, the TGI is more than 100 µM with M14 melanoma; more than 100 µM in the experiment with OVCAR-3 ovarian; more than 100 µM in the experiment on RPMI-8226 leukemia; 91.4 µM in the experiment on RXF 393 renal; 58.9 µM with SK-MEL-5 melanoma; more than 100 µM in the experiment with SNB-19 CNS. Also, the TGI with SNB-75 CNS, with SR leukemia, with T-47D breast and in the experiment with UACC-257 melanoma was more than 100 µM in each case.
For `Cc1nc2c(n1C)C(=O)c1nc(CBr)[nH]c(=O)c1C2=O`, the TGI with M14 melanoma is more than 100 µM; in the experiment with RPMI-8226 leukemia, more than 100 µM; in the experiment with RXF 393 renal it was more than 100 µM; with SK-MEL-5 melanoma it was 39 µM; in the experiment with SNB-19 CNS, more than 100 µM.
Consider `O=C(O)c1cc(=O)[nH]c(SCc2ccccc2)n1`, for which the TGI in the experiment with M14 melanoma, in the experiment on OVCAR-3 ovarian, with RXF 393 renal, in the experiment on SK-MEL-5 melanoma, in the experiment on SNB-19 CNS and in the experiment on SNB-75 CNS was more than 100 µM throughout. Besides, the TGI with SR leukemia, with T-47D breast and with UACC-257 melanoma was more than 100 µM each time.
In the case of `CC(=O)Oc1c(C)c2c(O)c3c1C1=C(OCOC1=C(C)C3=O)/C(C)=C\C(C)(O)C(O)C(C)C(O)C1C(=O)OC(C(C)C1O)C(C)(O)/C=C/C=C(C)C(=O)N2` (stereo not drawn), the TGI was more than 100 µM with M14 melanoma; more than 100 µM in the experiment on OVCAR-3 ovarian; more than 100 µM in the experiment with RPMI-8226 leukemia; 70.4 µM with RXF 393 renal; more than 100 µM with SK-MEL-5 melanoma; more than 100 µM with SNB-19 CNS. Also, the TGI was more than 100 µM in the experiment with SNB-75 CNS, 83.3 µM with SR leukemia, more than 100 µM in the experiment on T-47D breast and more than 100 µM in the experiment on UACC-257 melanoma.
Turning to `O=Cc1cc([N+](=O)[O-])no1`, the TGI in the experiment on M14 melanoma is 35.6 µM; in the experiment on OVCAR-3 ovarian it was more than 100 µM; with RPMI-8226 leukemia it was more than 100 µM; in the experiment with RXF 393 renal, more than 100 µM; with SK-MEL-5 melanoma, 36.6 µM; in the experiment on SNB-19 CNS, more than 100 µM. For the same compound, the TGI with SNB-75 CNS was more than 100 µM; in the experiment with SR leukemia it was more than 100 µM; in the experiment on T-47D breast it was more than 100 µM; in the experiment on UACC-257 melanoma, 90.7 µM.
For `Cc1ccc(NP(=O)(Oc2ccccc2)N(CCCl)CCCl)cc1` (stereo not drawn), the TGI in the experiment with M14 melanoma, in the experiment on OVCAR-3 ovarian, in the experiment on RPMI-8226 leukemia, with SK-MEL-5 melanoma, in the experiment on SNB-75 CNS and in the experiment with SR leukemia was more than 100 µM throughout. In the experiment on UACC-257 melanoma, this compound returned a TGI of more than 100 µM.
Regarding `O=C(C=P(c1ccccc1)(c1ccccc1)c1ccccc1)c1cccc(-c2cccc([N+](=O)[O-])c2)c1`, the TGI in the experiment with M14 melanoma was more than 100 µM; in the experiment with OVCAR-3 ovarian, more than 100 µM; with RPMI-8226 leukemia, 4.53 µM; in the experiment with RXF 393 renal, more than 100 µM; in the experiment on SK-MEL-5 melanoma it was 5.93 µM; in the experiment on SNB-19 CNS, more than 100 µM. For the same compound, the TGI with SNB-75 CNS was 7.62 µM; in the experiment on T-47D breast, more than 100 µM.
Consider `c1ccc(C2CC(c3cccc(Nc4ccncc4)c3)=NN2c2ccccc2)cc1` (stereo not drawn), for which the GI50 with M14 melanoma is 1.69 µM; in the experiment with OVCAR-3 ovarian it was 1.8 µM; with SK-MEL-5 melanoma, 1.77 µM; in the experiment on SNB-19 CNS, 1.63 µM; in the experiment with SNB-75 CNS, 1.32 µM; with T-47D breast, 2 µM. For the same compound, the GI50 in the experiment on UACC-257 melanoma was 1.94 µM. In addition, the TGI in the experiment on M14 melanoma turned out to be 3.39 µM; in the experiment on OVCAR-3 ovarian it was 3.54 µM; in the experiment on SK-MEL-5 melanoma, 3.22 µM; in the experiment with SNB-19 CNS it was 3 µM; with SNB-75 CNS, 2.88 µM; in the experiment on T-47D breast, 4.7 µM. Also, the TGI with UACC-257 melanoma came out at 4.15 µM.
Consider `O=S1(=O)C(c2ccccc2)C(N2CCCCC2)C1C1CC2c3ccccc3C1c1ccccc12` (stereo not drawn), for which the TGI in the experiment with M14 melanoma, in the experiment on OVCAR-3 ovarian, in the experiment on RPMI-8226 leukemia, in the experiment with RXF 393 renal, in the experiment on SK-MEL-5 melanoma and in the experiment with SNB-19 CNS was more than 100 µM throughout. In addition, the TGI with SNB-75 CNS, in the experiment on SR leukemia, in the experiment on T-47D breast and with UACC-257 melanoma was more than 100 µM throughout.
Consider `CSc1nc(NC2OCC(OC(C)=O)C(OC(C)=O)C2OC(C)=O)c(N=C(C)C(C)=O)c(=O)[nH]1` (stereo not drawn), for which the TGI with M14 melanoma, in the experiment with RPMI-8226 leukemia, with RXF 393 renal, with SK-MEL-5 melanoma, in the experiment with SNB-19 CNS and in the experiment with SNB-75 CNS was more than 100 µM each time. The TGI in the experiment on SR leukemia and in the experiment on UACC-257 melanoma was more than 100 µM each time.
In the case of `OC1(c2ccc(Cl)cc2)c2c(ccc3c2OCO3)C2=NCCN21` (stereo not drawn), the TGI in the experiment with M14 melanoma was 30.8 µM; with OVCAR-3 ovarian, more than 100 µM; in the experiment on RPMI-8226 leukemia, 42.5 µM; in the experiment with RXF 393 renal it was 86 µM; with SK-MEL-5 melanoma it was 32.1 µM; with SNB-19 CNS it was more than 100 µM. The TGI with SNB-75 CNS was 59 µM; with SR leukemia it was 53 µM; with T-47D breast, more than 100 µM; in the experiment with UACC-257 melanoma, 37.2 µM.
`CCOC(=O)C[C@@H]1C2(C=C[C@@]13CO3)OCC(C)(C)CO2`: the TGI in the experiment with M14 melanoma, in the experiment on OVCAR-3 ovarian, in the experiment with RXF 393 renal, with SK-MEL-5 melanoma, in the experiment on SNB-75 CNS and in the experiment on SR leukemia was more than 100 µM in each case. Besides, the TGI in the experiment on T-47D breast and with UACC-257 melanoma was more than 100 µM in each case.
On to `CCN(CC)CCCC(C)Nc1ccnc2cc3ccccc3cc12` (stereo not drawn), for which the TGI with M14 melanoma is more than 100 µM; in the experiment with OVCAR-3 ovarian it was more than 100 µM; in the experiment with RPMI-8226 leukemia, more than 100 µM; with RXF 393 renal, 31.4 µM; in the experiment on SK-MEL-5 melanoma it was 37.1 µM; with SNB-19 CNS it was 84.5 µM. In addition, the TGI in the experiment on SNB-75 CNS was 20.1 µM; with SR leukemia it was more than 100 µM; with T-47D breast, 89.7 µM; in the experiment on UACC-257 melanoma, 46.1 µM.
Turning to `CCCCCCCCCCCCCCCc1ccc(OCC(O)CO)cc1` (stereo not drawn), the TGI in the experiment with M14 melanoma was 33.4 µM; in the experiment with OVCAR-3 ovarian, 49.3 µM; in the experiment on RPMI-8226 leukemia, 53.2 µM; in the experiment with RXF 393 renal, 35.4 µM; in the experiment with SK-MEL-5 melanoma, more than 100 µM; in the experiment on SNB-19 CNS, more than 100 µM. The TGI in the experiment on SNB-75 CNS is 72 µM; in the experiment on SR leukemia, more than 100 µM; in the experiment with UACC-257 melanoma it was more than 100 µM.
Take `N#Cc1c(NC(=S)Nc2ccc(Cl)cc2)sc2c1CCCC2`: the TGI in the experiment with OVCAR-3 ovarian was more than 100 µM; in the experiment with RPMI-8226 leukemia, 67.9 µM; with RXF 393 renal, more than 100 µM; in the experiment on SK-MEL-5 melanoma, more than 100 µM; in the experiment with SNB-19 CNS it was more than 100 µM; with SNB-75 CNS, more than 100 µM. The TGI in the experiment with SR leukemia was 89.1 µM; in the experiment on T-47D breast, more than 100 µM; in the experiment with UACC-257 melanoma, more than 100 µM.
With `Nc1cc2c(nnn2C2OC(COCc3ccccc3)C(OCc3ccccc3)C2OCc2ccccc2)c(=O)[nH]1` (stereo not drawn), the TGI was 64.4 µM in the experiment with M14 melanoma; more than 100 µM in the experiment with OVCAR-3 ovarian; 39.5 µM with RXF 393 renal; 19.9 µM in the experiment with SK-MEL-5 melanoma; more than 100 µM in the experiment on SNB-19 CNS; more than 100 µM with SNB-75 CNS. Besides, the TGI with SR leukemia is 35.6 µM; with T-47D breast it was more than 100 µM; with UACC-257 melanoma it was 58.6 µM.
As to `CC(C)CCC[C@@H](C)[C@H]1CC[C@H]2[C@@H]3CC[C@H]4C[C@H](N)CC[C@]4(C)[C@H]3CC[C@]12C`, the TGI in the experiment with M14 melanoma was 38.5 µM; in the experiment with OVCAR-3 ovarian, more than 100 µM; in the experiment with RPMI-8226 leukemia, more than 100 µM; in the experiment on RXF 393 renal, more than 100 µM; in the experiment on SK-MEL-5 melanoma, 54.3 µM; in the experiment on SNB-19 CNS, 46.9 µM. Besides, the TGI with SNB-75 CNS was 57.1 µM; with T-47D breast, more than 100 µM; in the experiment on UACC-257 melanoma, 41.6 µM.
For `CS(=O)(=O)OC1CN2CCC1CC2` (stereo not drawn), the TGI in the experiment on M14 melanoma, with OVCAR-3 ovarian, with RPMI-8226 leukemia, in the experiment on RXF 393 renal, in the experiment with SK-MEL-5 melanoma and in the experiment with SNB-19 CNS was more than 100 µM in each case. The TGI in the experiment with SNB-75 CNS, in the experiment with SR leukemia, with T-47D breast and in the experiment on UACC-257 melanoma was more than 100 µM each time.
As for `O=C(C[C@H](NC(=O)OCc1ccccc1)C(=O)NC1Cc2ccccc2OC1=O)OCc1ccccc1` (stereo partly drawn), the TGI with M14 melanoma, with OVCAR-3 ovarian, with RPMI-8226 leukemia, in the experiment with RXF 393 renal, with SK-MEL-5 melanoma and in the experiment on SNB-19 CNS was more than 100 µM each time. The TGI in the experiment on SNB-75 CNS, in the experiment with SR leukemia and in the experiment on T-47D breast was more than 100 µM in each case.
